Experimental data from patent publication US9126959B2, “PPAR-sparing thiazolidinedione salts for the treatment of metabolic diseases” (Metabolic Solutions Development Company, LLC, priority 2009, dated 2015).
Where a name gives a salt, the structure may show the parent alone.

Experiments:
[1] = AUC of compound related materials after oral dosing of Compound B free acid or its Na or K salt; assay type: in vivo; conditions: cynomolgus monkeys, 250 mg free acid equivalents, formulated tablets; compared with free acid
Method: Referring to FIG. 10, the area under the curve (AUC) of compound related materials was compared following dosing of 250 mg of Compound B as powder in capsules of free acid (PIC), formulated tablets of micronized free acid, or formulated tablets of the Na or K salt of Compound B given at the same free acid equivalents. (N=4 cynomolgus monkeys). The formulated, compressed tablet also contained in each case approximately 40.5% lactose, 16.8% microcrystalline cellulose, 1.9% Croscarmellose sodium, 0.5% colloidal silicon dioxide, and 0.9% magnesium stearate.

[2] = Moisture sorption analysis of metal salts of Compound B; assay type: physicochemical; conditions: 25° C.
Method: Metal salts of compounds of Formula I were characterized using XRPD, DSC, thermogravimetry, and moisture sorption analyses. Note that XRPD patterns described below, and provided in FIGS. 1 and 5 were obtained using a Bruker Model D8 X-Ray Diffractometer. Thermogravimetric analyses, DSC analyses, and moisture sorption analyses were performed using a TA Instruments Universal V4.4A instrument.
FIG. 1 provides the XRPD pattern of a sample of a sodium salt of Compound B Referring to FIGS. 2-4, thermogravimetric, DSC, and moisture sorption analyses were performed on a sodium salt of Compound B. Thermogravimetric analysis was conducted using 7.5450 mg of the sodium salt and an instrument setting of 10° C./min. The DSC analysis was performed using a 2.00 mg sample of the sodium salt and an instrument setting of 10° C./min. The moisture sorption analysis was performed on 14.07 mg of sodium salt over a relative humidity range of 5% to 95% at 25° C. with 180 minute max. equilibration time and data sampling every 2 minutes.
FIG. 5 provides the XRPD pattern of a sample of a potassium salt of Compound B Referring to FIGS. 6-8, thermogravimetric, DSC, and moisture sorption analyses were performed on a potassium salt of Compound B. Thermogravimetric analysis was conducted using 15.9290 mg of the potassium salt and an instrument setting of 10° C./min. […]

diabetic KKAy mouse = assay: Blood glucose lowering in the diabetic KKAy mouse; assay type: in vivo; conditions: diabetic KKAy mice, gavage once daily, measured after 4 daily doses
Method: In these experiments, free base or sodium salt was given to diabetic KKAy mice (N=6) and blood glucose was measured after 4 days of daily treatment at the doses indicated. KKAy mice, 8-12 weeks of age, were given the doses of the compounds according to the dosages on the X axis of FIG. 11. The compounds were given by gavage once daily at 10 mg/kg. On the fifth day (after 4 daily doses at the levels show) a blood sample was taken to measure plasma glucose.

[3] = Bioavailability of sodium salt of Compound A, oral capsule versus iv injection, crossover design; assay type: in vivo; conditions: male cynomolgus monkeys, oral gavage, 90 mg free base equivalents in gelatin capsules; compared with free base
Method: The monkeys fasted overnight and were dosed by oral gavage washed down with 10 ml tap water. Blood samples were taken at 0.25, 0.5, 1, 2, 3, 4, 6, 9, 12, 24, and 48 hours after a single dosage was administered and assayed for drug related materials with a LCMS assay using an internal standard. 90 mg of drug was put in 00 gelatin capsules containing 90 mg of free base equivalents. This was compared to an iv injection of 2 ml/kg and 45 mg of free base solution in 50% hydroxypropyl b-cyclodextran. The absolute availability versus an iv injection was determined for both parent compound and major metabolite.

absolute availability versus an iv injection, major metabolite [3] | absolute availability versus an iv injection, parent compound [3] | SMILES | bioavailability (AUC of compound related materials) [1] | water uptake ([2]; relative humidity increased from ~5% to ~95% RH) [wt %] | lowering blood glucose (plasma glucose) (diabetic KKAy mouse) | moisture uptake ([2]; between ~6% and ~95% RH) [wt %]
– | – | COc1cccc(C(=O)COc2ccc(CC3SC(=O)[N-]C3=O)cc2)c1.[K+] (stereo not shown) [potassium salt of Compound B, Potassium 5-{4-[2-(3-methoxyphenyl)-2-oxoethoxy]benzyl}-2,4-dioxo-1,3-thiazolidin-3-ide] | significantly higher bioavailability | ~21.1 | – | –
significantly higher bioavailability | significantly higher bioavailability | CCc1ccc(C(=O)COc2ccc(CC3SC(=O)NC3=O)cc2)nc1 (stereo not shown) [sodium salt of Compound A, 5-(4-(2-(5-ethylpyridin-2-yl)-2-oxoethoxy)benzyl)-1,3-thiazolidine-2,4-dione] | – | – | excellent dose response for lowering blood glucose | –
– | – | COc1cccc(C(=O)COc2ccc(CC3SC(=O)[N-]C3=O)cc2)c1.[Na+] (stereo not shown) [sodium salt of Compound B, Sodium 5-{4-[2-(3-methoxyphenyl)-2-oxoethoxy]benzyl}-2,4-dioxo-1,3-thiazolidin-3-ide] | significantly higher bioavailability | – | – | ~10.0
